Reference: patent US20180305332A1, “Bispiperidinyl Derivatives as Liver X Receptor Beta Agonists, Compositions, and Their Use” (Merck Sharp & Dohme Corp., priority 2015, published 2018)
pEC50: −log10 of the molar value.

What was measured:
[1] = target: T1, GST tagged LXRbeta LBD (ligand binding domain) (Homo sapiens, UniProt P55055); experiment: LanthaScreen TR-FRET Liver X Receptor Coactivator Assay, LXR beta-LBD; assay type: biochemical; details: relative to reference T0901317; for pEC50: Inflection Point (potency), co-activator recruitment, read-out: LXR beta IP; for Emax: activity at max dose (efficacy), read-out: LXR beta act @ max dose (%)
T1 construct: purchased Invitrogen pv4658.pps
T1 sequence (P55055 222-460 limits assumed): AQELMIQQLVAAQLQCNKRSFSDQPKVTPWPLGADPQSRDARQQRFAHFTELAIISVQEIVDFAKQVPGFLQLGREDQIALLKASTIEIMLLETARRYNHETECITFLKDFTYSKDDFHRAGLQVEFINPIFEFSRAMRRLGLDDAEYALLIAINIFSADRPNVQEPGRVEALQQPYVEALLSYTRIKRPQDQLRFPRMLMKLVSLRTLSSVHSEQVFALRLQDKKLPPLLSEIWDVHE
Protocol: (§1) Potency (Inflection Point, IP) and efficacy (Emax) are evaluated via compound-induced co-activator recruitment to glutathione-S-transferase (GST) tagged LXRbeta and LXRalpha LBD (ligand binding domain) proteins in relation to reference dual agonist compound T0901317 (N-(2,2,2-Trifluoroethyl)-N-[4-[2,2,2-trifluoro-1-hydroxy-1-(trifluoromethyl)ethyl] phenyl]benzenesulfonamide) using the LanthaScreen™ TR-FRET Liver X Receptor Coactivator Assays according to manufacturer's instructions (Invitrogen catalog number pv4658.pps and pv4655). While running the LanthaScreen™ TR-FRET Liver X Receptor Coactivator Assay, LXR alpha-LBD or LXR beta-LBD was added to ligand test compounds followed by addition of a mixture of a fluorescein-labelled coactivator peptide and terbium-conjugated anti-GST antibody. After an incubation period at room temperature, TR-FRET (time-resolved fluorescence resonance energy transfer) was measured using a filter-based instrument capable of TR-FRET, e.g. PerkinElmer Envision.

[2] = target: T2, GST tagged LXRalpha LBD (ligand binding domain) (Homo sapiens, UniProt Q13133); experiment: LanthaScreen TR-FRET Liver X Receptor Coactivator Assay, LXR alpha-LBD; assay type: biochemical; details: relative to reference T0901317; for pEC50 / LXR alpha IP (nM): Inflection Point (potency), co-activator recruitment; for pEC50: read-out: LXR alpha IP; for Emax: activity at max dose (efficacy), read-out: LXR alpha act @ max dose (%)
T2 construct: purchased Invitrogen pv4655
T2 sequence (Q13133 209-447 limits assumed): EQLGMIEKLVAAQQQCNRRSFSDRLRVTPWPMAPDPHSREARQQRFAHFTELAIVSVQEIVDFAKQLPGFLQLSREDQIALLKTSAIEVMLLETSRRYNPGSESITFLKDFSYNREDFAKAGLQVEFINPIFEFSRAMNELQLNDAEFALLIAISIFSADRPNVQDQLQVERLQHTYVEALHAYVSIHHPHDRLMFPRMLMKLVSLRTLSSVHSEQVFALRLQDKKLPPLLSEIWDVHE
Protocol: as §1

SMILES | pEC50 [1] | Emax [1] [%] | pEC50 [2] | Emax [2] [%] | LXR alpha IP (nM) [2]
CCN(C)C(=O)c1ccc(N2CCC(C3CCN(C(=O)[C@](O)(c4ccccc4)C(F)(F)F)CC3)CC2)cc1Cl [Example E-60, 2-chloro-N-ethyl-N-methyl-4-{1′-[(2R)-3,3,3-trifluoro-2-hydroxy-2-phenylpropanoyl]-4,4′-bipiperidin-1-yl}benzamide] | 7.00 | 114 | 5.73 | 34 | –
CC1CCCN(C(=O)c2ccc(N3CCC(C4CCN(C(=O)[C@](O)(c5ccccc5)C(F)(F)F)CC4)CC3)cc2Cl)C1 (stereo partly drawn) [Example E-38, (2R)-3-(1′-{3-chloro-4-[(3-methylpiperidin-1-yl)carbonyl]phenyl}-4,4′-bipiperidin-1-yl)-1,1,1-trifluoro-3-oxo-2-phenylpropan-2-ol] | 6.56 | 57 | – | 0 | NO IP
CC(C)(C)OC(=O)N1CCC(C2CCN(c3ccc(S(C)(=O)=O)c(Cl)c3)CC2)CC1 [Example D-9, tert-butyl 1′-[3-chloro-4-(methylsulfonyl)phenyl]-4,4′-bipiperidine-1-carboxylate] | 6.91 | 81 | 6.09 | 41 | –
CN(C)S(=O)(=O)c1ccc(N2CCC(C3CCN(C(=O)[C@](O)(c4ccccc4)C(F)(F)F)CC3)CC2)cc1Cl [Example D-4, 2-chloro-N,N-dimethyl-4-{1′-[(2R)-3,3,3-trifluoro-2-hydroxy-2-phenylpropanoyl]-4,4′-bipiperidin-1-yl}benzenesulfonamide] | 6.43 | 89 | 5.69 | 29 | –
CCN(CC)C(=O)c1ccc(N2CCC(C3CCN(C(=O)C(O)(C(C)C)C(F)(F)F)CC3)CC2)cc1Cl (stereo not shown) [Example E-9, 2-chloro-N,N-diethyl-4-{1′-[2-hydroxy-3-methyl-2-(trifluoromethyl)butanoyl]-4,4′-bipiperidin-1-yl}benzamide] | 7.52 | 96 | 6.94 | 49 | –
CC(C)(C)OC(=O)NC1CN(C(=O)c2ccc(N3CCC(C4CCN(C(=O)OC(C)(C)C)CC4)CC3)cc2Cl)C1 [Example E-68, tert-butyl 1′-[4-({3-[(tert-butoxycarbonyl)amino]azetidin-1-yl}carbonyl)-3-chlorophenyl]-4,4′-bipiperidine-1-carboxylate] | 7.54 | 92 | 6.44 | 64 | –
O=C(c1ccc(N2CCC(C3CCN(C(=O)[C@](O)(c4ccccc4)C(F)(F)F)CC3)CC2)cc1Cl)N(CCF)CCF [Example E-67, 2-chloro-N,N-bis(2-fluoroethyl)-4-{1′-[(2R)-3,3,3-trifluoro-2-hydroxy-2-phenylpropanoyl]-4,4′-bipiperidin-1-yl}benzamide] | 6.77 | 106 | 5.68 | 30 | –
CCCCN(C)C(=O)c1ccc(N2CCC(C3CCN(C(=O)[C@](O)(c4ccccc4)C(F)(F)F)CC3)CC2)cc1Cl [Example E-59, N-butyl-2-chloro-N-methyl-4-{1′-[(2R)-3,3,3-trifluoro-2-hydroxy-2-phenylpropanoyl]-4,4′-bipiperidin-1-yl}benzamide] | 6.68 | 89 | 5.62 | 21 | –
CNC(=O)c1ccc(N2CCC(C3CCN(C(=O)[C@](O)(c4ccccc4)C(F)(F)F)CC3)CC2)cc1Cl [Example E-62, 2-chloro-N-methyl-4-{1′-[(2R)-3,3,3-trifluoro-2-hydroxy-2-phenylpropanoyl]-4,4′-bipiperidin-1-yl}benzamide] | 6.47 | 99 | 5.69 | 33 | –

The next lines start with the values.

pEC50 [1] | Emax [1] [%] | pEC50 [2] | Emax [2] [%] | LXR alpha IP (nM) [2] | SMILES
7.43 | 113 | 6.03 | 41 | – | CN(C)C(=O)c1ccc(N2CCC(C3CCN(C(=O)C4(c5ccccc5)CCCC4)CC3)CC2)cc1Cl [Example A-40, 2-chloro-N,N-dimethyl-4-{1′-[(1-phenylcyclopentyl)carbonyl]-4,4′-bipiperidin-1-yl}benzamide]
7.19 | 120 | 5.72 | 68 | – | C=C(C)CC(O)(C(=O)N1CCC(C2CCN(c3ccc(C(=O)N(C)C)c(Cl)c3)CC2)CC1)C(F)(F)F (stereo not shown) [Example A-56, 2-chloro-4-{1′-[2-hydroxy-4-methyl-2-(trifluoromethyl)pent-4-enoyl]-4,4′-bipiperidin-1-yl}-N,N-dimethylbenzamide]
7.15 | 95 | 6.05 | 38 | – | CN(C)C(=O)c1ccc(N2CCC(C3CCN(C(=O)c4c(F)cccc4F)CC3)CC2)nc1Cl [Example B-8, 2-chloro-6-{1′-[(2,6-difluorophenyl)carbonyl]-4,4′-bipiperidin-1-yl}-N,N-dimethylpyridine-3-carboxamide]
7.05 | 91 | 5.87 | 17 | – | CN(C)C(=O)c1ccc(N2CCC(C3CCN(C(=O)[C@](O)(c4ccccc4)C(F)(F)C(F)(F)F)CC3)CC2)nc1Cl (single isomer, unassigned) [Example B-16]
8.10 | 131 | 6.28 | 74 | – | CN(C)C(=O)c1ccc(N2CCC(C3CCN(C(=O)OCc4c(Cl)cccc4Cl)CC3)CC2)cc1Cl [Example A-108, 2,6-dichlorobenzyl 1′-[3-chloro-4-(dimethylcarbamoyl)phenyl]-4,4′-bipiperidine-1-carboxylate]
6.49 | 143 | 5.75 | 71 | – | CC(C)C(O)(C(=O)N1CCC(C2CCN(c3ccc(C(=O)N(C)C)c(Cl)n3)CC2)CC1)C1CC1 (stereo not shown) [Example B-3, 2-chloro-6-[1′-(2-cyclopropyl-2-hydroxy-3-methylbutanoyl)-4,4′-bipiperidin-1-yl]-N,N-dimethylpyridine-3-carboxamide]
7.19 | 127 | 5.78 | 62 | – | CN(C)C(=O)c1ccc(N2CCC(C3CCN(C(=O)C4(c5ccccc5F)CC4)CC3)CC2)cc1Cl [Example A-71, 2-chloro-4-(1′-{[1-(2-fluorophenyl)cyclopropyl]carbonyl}-4,4′-bipiperidin-1-yl)-N,N-dimethylbenzamide]
7.27 | 128 | 6.21 | 40 | – | CN(C)C(=O)c1ccc(N2CCC(C3CCN(C(=O)[C@@](O)(c4ccccc4)C(F)(F)C(F)(F)F)CC3)CC2)cc1Cl (single isomer, unassigned) [Example A-43]
6.28 | 106 | 5.45 | 46 | – | CN(C)C(=O)c1ccc(N2CCC(C3CCN(C(=O)C4(C(F)(F)F)CCC4)CC3)CC2)cc1Cl [Example A-29, 2-chloro-N,N-dimethyl-4-(1′-{[1-(trifluoromethyl)cyclobutyl]carbonyl}-4,4′-bipiperidin-1-yl)benzamide]
6.95 | 109 | 5.45 | 54 | – | CN(C)C(=O)c1ccc(N2CCC(C3CCN(C(=O)c4c(F)cccc4C(F)(F)F)CC3)CC2)cc1Cl [Example A-25, 2-chloro-4-(1′-{[2-fluoro-6-(trifluoromethyl)phenyl]carbonyl}-4,4′-bipiperidin-1-yl)-N,N-dimethylbenzamide]
6.88 | 107 | 5.63 | 29 | – | CN(C)C(=O)c1ccc(N2CCC(C3CCN(C(=O)C(O)(c4ccccc4F)C(F)(F)F)CC3)CC2)cc1Cl (stereo not shown) [Example A-96, 2-chloro-N,N-dimethyl-4-{1′-[3,3,3-trifluoro-2-(2-fluorophenyl)-2-hydroxypropanoyl]-4,4′-bipiperidin-1-yl}benzamide]
6.55 | 91 | – | 27 | NO IP | Cc1cccc(C(O)(C(=O)N2CCC(C3CCN(c4ccc(C(=O)N(C)C)c(Cl)c4)CC3)CC2)C(F)(F)F)c1 (stereo not shown) [Example A-68, 2-chloro-N,N-dimethyl-4-{1′-[3,3,3-trifluoro-2-hydroxy-2-(3-methylphenyl)propanoyl]-4,4′-bipiperidin-1-yl}benzamide]
6.89 | 84 | 5.91 | 58 | – | O=C(c1c(F)cccc1F)N1CCC(C2CCN(c3ccc(C(=O)N4CCCC4CO)c(Cl)c3)CC2)CC1 (stereo not shown) [Example E-12, {1-[(2-chloro-4-{1′-[(2,6-difluorophenyl)carbonyl]-4,4′-bipiperidin-1-yl}phenyl)carbonyl]pyrrolidin-2-yl}methanol]
